The results in this text go back to patent publication US9669003B2, “Use of flavone and flavanone derivatives in preparation of sedative and hypnotic drugs” (priority 2012, dated 2017).

Format in all cases: in vivo
Test [1] deals with Kunming mice. The experiment in a line: Influence on hypnosis effect with pentobarbital sodium doses below the threshold (25 mg/kg i.p.). The settings on record: pentobarbital sodium 25 mg/kg i.p. 60 min later, sleep observed in 30 min, n = 10. The gist of the method: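 Percentage of mice sleeping within 30 min after subthreshold pentobarbital sodium (25 mg/kg i.p.), defined by loss of righting reflex over 1 min, analysed by χ2. Compound in 0.5% CMC-Na given intragastrically at 25/50/100 mg/kg 60 min before; groups of 10 Kunming mice, both sexes.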

For test [2], the system named is Kunming mice. As to the kind of experiment: Influence on hypnosis effect with pentobarbital sodium doses at the threshold (50 mg/kg i.p.). The settings on record: pentobarbital sodium 50 mg/kg i.p. 60 min later, x ± s, n = 10. An outline of the steps:
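Pentobarbital sodium (0.3%, 50 mg/kg i.p.) injected 60 min after a single intragastric dose (25, 50, 100 mg/kg, 0.5% CMC-Na vehicle) in Kunming mice, 10 per group, sexes balanced. Onset and length of sleep (righting reflex lost over 1 min) analysed by ANOVA; sleeping incidence by χ2 test.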

Test [3] has as its system Kunming mice. The experiment in a line: Influence on autonomic activity of normal mice (ZIL-2 mice autonomic activity meter, counts within 10 min). To be noted: intragastric, x ± s; for Times of activities in 1 h after drug administration/10 min: 1 h after administration; for Times of activities in 2 h after drug administration/10 min: 2 h after administration; for Times of activities in 24 h after drug administration/10 min: 24 h after administration. The gist of the method:
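Activity counts during a 10-min window were taken at 1, 2 and 24 h after dosing in groups of 10 mixed-sex Kunming mice. Compounds were given in 0.5% CMC-Na at 25, 50 or 100 mg/kg. Statistics used Levene's homogeneity test, ANOVA and Dunnett's multiple comparisons.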

The mark [4] stands for this setting: test drug 25 mg/kg intragastric single dose.
[5] abbreviates: test drug 50 mg/kg intragastric single dose.
Where [6] appears, read: test drug 100 mg/kg intragastric single dose.
Where [7] appears, read: 25 mg/kg intragastric single dose.
The mark [8] stands for this setting: 50 mg/kg intragastric single dose.
Setting [9] is: 100 mg/kg intragastric single dose.

Marks after values point to notes of the source that are not given here.

`C#Cc1ccc(-c2cc(=O)c3cc(F)c(C(=O)O)c(O)c3o2)cc1CCCCCCCCCCCCCCCCCCCC` [Example 33]: the “Number of sleeping animals” value in the test with Kunming mice [1] (setting [4]) is 5; with Kunming mice [1] (setting [5]) it was 6; in the test on Kunming mice [1] (setting [6]), 7. The “rate of sleeping (%)” value in the test with Kunming mice [1] (setting [4]) is reported as 50** %; in the test on Kunming mice [1] (setting [5]), 60** %; in the test on Kunming mice [1] (setting [6]), 70*** %. Further, the results for the duration of sleep with Kunming mice [2] (setting [7]), with Kunming mice [2] (setting [8]) and with Kunming mice [2] (setting [9]) were 30.43 ± 22.06 min, 36.53 ± 13.21 min and 51.56 ± 20.75 min, respectively. In addition, the time to sleep with Kunming mice [2] (setting [7]) came out at 4.81 ± 2.37 min; with Kunming mice [2] (setting [8]) it was 4.62 ± 1.75 min; in the test with Kunming mice [2] (setting [9]) it was 3.82 ± 1.12 min. Further, the “Times of activities in 1 h after drug administration/10 min” value (from here on “Times of activities in 1 h”) with Kunming mice [3] (25 mg/kg, n = 10) is 304.9 ± 39.2 /10 min; with Kunming mice [3] (50 mg/kg, n = 10), 266.4 ± 51.6 /10 min; in the test on Kunming mice [3] (100 mg/kg, n = 10), 179.0 ± 49.1 /10 min. Further, the “Times of activities in 2 h after drug administration/10 min” value (“Times of activities in 2 h” for short) with Kunming mice [3] (25 mg/kg, n = 10) is 298.2 ± 35.6 /10 min; in the test on Kunming mice [3] (50 mg/kg, n = 10) it was 247.1 ± 58.3 /10 min; with Kunming mice [3] (100 mg/kg, n = 10), 165.8 ± 52.3 /10 min. In addition, the “Times of activities in 24 h after drug administration/10 min” value (“Times of activities in 24 h” for short) is given as 273.2 ± 80.8 /10 min in the test on Kunming mice [3] (25 mg/kg, n = 10); 284.7 ± 78.7 /10 min in the test with Kunming mice [3] (50 mg/kg, n = 10); 318.4 ± 80.5 /10 min with Kunming mice [3] (100 mg/kg, n = 10).

Regarding `CC=Cc1c(C(=O)O)cc2c(=O)cc(-c3ccc(F)c(C#N)c3)oc2c1C(=O)O` [Example 34], the “Number of sleeping animals” value with Kunming mice [1] (setting [4]) came to 2; in the test on Kunming mice [1] (setting [5]), 4; in the test with Kunming mice [1] (setting [6]), 6. For the same molecule, the “rate of sleeping (%)” value with Kunming mice [1] (setting [4]) was 20%; in the test with Kunming mice [1] (setting [5]) it was 40* %; with Kunming mice [1] (setting [6]), 60** %. Besides, the duration of sleep in the test with Kunming mice [2] (setting [7]) was found to be 37.89 ± 15.21 min; in the test on Kunming mice [2] (setting [8]), 44.75 ± 21.85 min; in the test with Kunming mice [2] (setting [9]) it was 54.77 ± 19.67 min. Also, the time to sleep in the test with Kunming mice [2] (setting [7]) is given as 4.39 ± 1.61 min; in the test with Kunming mice [2] (setting [8]), 3.87 ± 1.42 min; with Kunming mice [2] (setting [9]), 3.45 ± 1.38 min. The “Times of activities in 1 h” value is reported as 292.2 ± 49.3 /10 min in the test on Kunming mice [3] (25 mg/kg, n = 10); 249.4 ± 62.4 /10 min in the test with Kunming mice [3] (50 mg/kg, n = 10); 127.8 ± 28.6 /10 min in the test with Kunming mice [3] (100 mg/kg, n = 10). The “Times of activities in 2 h” value in the test with Kunming mice [3] (25 mg/kg, n = 10) is recorded as 276.2 ± 43.8 /10 min; with Kunming mice [3] (50 mg/kg, n = 10) it was 263.3 ± 59.3 /10 min; with Kunming mice [3] (100 mg/kg, n = 10) it was 243.9 ± 40.5 /10 min. For the same molecule, the “Times of activities in 24 h” value with Kunming mice [3] (25 mg/kg, n = 10) was 313.2 ± 75.4 /10 min; with Kunming mice [3] (50 mg/kg, n = 10), 334.7 ± 72.3 /10 min; with Kunming mice [3] (100 mg/kg, n = 10), 298.7 ± 81.8 /10 min.

As for `CCCc1cc2c(=O)cc(-c3ccc(C(=O)O)c(C(N)=O)c3)oc2c(I)c1CCS(=O)(=O)O` [Example 35], the “Number of sleeping animals” value with Kunming mice [1] (setting [4]) stood at 4; with Kunming mice [1] (setting [5]), 6; in the test with Kunming mice [1] (setting [6]), 7. In addition, the figures for the “rate of sleeping (%)” value in the test with Kunming mice [1] (setting [4]), in the test on Kunming mice [1] (setting [5]) and in the test with Kunming mice [1] (setting [6]) were 40* %, 60** % and 70** %, respectively. Also, the duration of sleep came to 38.25 ± 15.16 min in the test on Kunming mice [2] (setting [7]), 57.54 ± 28.39 min in the test on Kunming mice [2] (setting [8]) and 58.38 ± 26.82 min in the test with Kunming mice [2] (setting [9]). Besides, the figures for the time to sleep in the test on Kunming mice [2] (setting [7]), in the test with Kunming mice [2] (setting [8]) and with Kunming mice [2] (setting [9]) were 4.35 ± 1.42 min, 3.88 ± 1.16 min and 3.76 ± 1.49 min, respectively. The “Times of activities in 1 h” value in the test on Kunming mice [3] (25 mg/kg, n = 10) is recorded as 336.84 ± 57.8 /10 min; in the test with Kunming mice [3] (50 mg/kg, n = 10), 310.3 ± 48.9 /10 min; in the test on Kunming mice [3] (100 mg/kg, n = 10), 266.8 ± 50.1 /10 min. In addition, the “Times of activities in 2 h” value is 278.8 ± 49.0 /10 min in the test with Kunming mice [3] (25 mg/kg, n = 10); 244.8 ± 39.6 /10 min in the test on Kunming mice [3] (50 mg/kg, n = 10); 219.6 ± 47.7 /10 min with Kunming mice [3] (100 mg/kg, n = 10). Further, the “Times of activities in 24 h” value with Kunming mice [3] (25 mg/kg, n = 10) is recorded as 307.4 ± 69.8 /10 min; in the test with Kunming mice [3] (50 mg/kg, n = 10), 308.1 ± 954 /10 min; in the test on Kunming mice [3] (100 mg/kg, n = 10) it was 321.5 ± 72.9 /10 min.

Take `COc1cc(OC)c2c(=O)cc(-c3ccc(OC)c(OC)c3)oc2c1` [Example 36]: the “Number of sleeping animals” value in the test on Kunming mice [1] (setting [4]) came out at 3; in the test with Kunming mice [1] (setting [5]) it was 4; in the test on Kunming mice [1] (setting [6]), 6. Besides, the “rate of sleeping (%)” value was 30% in the test on Kunming mice [1] (setting [4]), 40* % with Kunming mice [1] (setting [5]) and 60** % in the test with Kunming mice [1] (setting [6]). The figures for the duration of sleep in the test with Kunming mice [2] (setting [7]), in the test with Kunming mice [2] (setting [8]) and in the test with Kunming mice [2] (setting [9]) were 38.32 ± 20.03 min, 61.41 ± 26.54 min and 72.03 ± 21.92 min, respectively. The time to sleep with Kunming mice [2] (setting [7]) was 4.21 ± 1.65 min; with Kunming mice [2] (setting [8]), 3.77 ± 1.12 min; with Kunming mice [2] (setting [9]), 3.09 ± 1.25 min. Also, the “Times of activities in 1 h” value in the test on Kunming mice [3] (25 mg/kg, n = 10, 25 mg/kg) is listed as 321.4 ± 53.4 /10 min; in the test with Kunming mice [3] (50 mg/kg, n = 10, 50 mg/kg), 289.9 ± 44.8 /10 min; in the test on Kunming mice [3] (100 mg/kg, n = 10, 100 mg/kg), 288.3 ± 50.4 /10 min. Also, the “Times of activities in 2 h” value in the test on Kunming mice [3] (25 mg/kg, n = 10, 25 mg/kg) is 310.8 ± 51.5 /10 min; in the test on Kunming mice [3] (50 mg/kg, n = 10, 50 mg/kg), 258.2 ± 43.6 /10 min; with Kunming mice [3] (100 mg/kg, n = 10, 100 mg/kg), 235.8 ± 49.8 /10 min. In addition, the “Times of activities in 24 h” value with Kunming mice [3] (25 mg/kg, n = 10, 25 mg/kg) was 300.2 ± 79.6 /10 min; with Kunming mice [3] (50 mg/kg, n = 10, 50 mg/kg), 311.5 ± 98.3 /10 min; in the test with Kunming mice [3] (100 mg/kg, n = 10, 100 mg/kg) it was 322.6 ± 76.8 /10 min.

Regarding `N#Cc1cc(-c2cc(=O)c3c(N)cc(F)cc3o2)ccc1O` [Example 37], the “Number of sleeping animals” value in the test with Kunming mice [1] (setting [4]) came to 3; in the test with Kunming mice [1] (setting [5]), 6; with Kunming mice [1] (setting [6]), 7. The results for the “rate of sleeping (%)” value in the test on Kunming mice [1] (setting [4]), with Kunming mice [1] (setting [5]) and with Kunming mice [1] (setting [6]) were 30%, 60** % and 70** %, respectively. In addition, the values for the duration of sleep in the test with Kunming mice [2] (setting [7]), in the test on Kunming mice [2] (setting [8]) and in the test on Kunming mice [2] (setting [9]) were 30.27 ± 22.71 min, 40.03 ± 20.58 min and 57.51 ± 25.63 min, respectively. For the same molecule, the time to sleep in the test with Kunming mice [2] (setting [7]) is 4.99 ± 1.97 min; with Kunming mice [2] (setting [8]), 3.98 ± 1.46 min; with Kunming mice [2] (setting [9]), 3.88 ± 1.43 min. Also, the “Times of activities in 1 h” value is on record as 321.4 ± 62.4 /10 min in the test on Kunming mice [3] (25 mg/kg, n = 10); 279.7 ± 46.3 /10 min in the test on Kunming mice [3] (50 mg/kg, n = 10); 277.3 ± 45.7 /10 min in the test with Kunming mice [3] (100 mg/kg, n = 10). Moreover, the “Times of activities in 2 h” value is 288.0 ± 38.9 /10 min in the test on Kunming mice [3] (25 mg/kg, n = 10); 259.5 ± 46.5 /10 min with Kunming mice [3] (50 mg/kg, n = 10); 222.8 ± 43.2 /10 min in the test on Kunming mice [3] (100 mg/kg, n = 10). Moreover, the “Times of activities in 24 h” value in the test with Kunming mice [3] (25 mg/kg, n = 10) is recorded as 335.3 ± 65.2 /10 min; with Kunming mice [3] (50 mg/kg, n = 10), 333.8 ± 87.8 /10 min; in the test with Kunming mice [3] (100 mg/kg, n = 10), 317.8 ± 62.3 /10 min.
